# Literature values, collected in patent US20090142410A1, “Nutritional composition and method for increasing creatine uptake and retention in skeletal muscle, increasing muscle mass and strength, increasing exercise capacity and for aiding recovery following exercise” (priority 2006, published 2009).
# Conditions: concomitant ingestion with carbohydrates
compound,measurement,value
"CN(CC(=O)O)C(=N)N [Creatine, N-methyl-N-guanyl Glycine]",improvement of Creatine retention,up to 60%
